Consider two compounds from patent publication US8673856B2 (Anygen Co., Ltd., priority 2006, dated 2014).

The subject of the experiment is Sprague-Dawley male rats. Particulars: rat, in vivo.

For the compound `CC[C@H](C)[C@@H]1NC(=O)[C@H](CCCNC(=N)N)NC(=O)[C@H](CO)NC(=O)[C@@H]2CSSC[C@@H]3NC(=O)[C@H](CO)NC(=O)CNC(=O)[C@H]([C@@H](C)O)NC(=O)[C@H](CSSC[C@H](N)C(=O)N[C@@H](CCCCN)C(=O)NCC(=O)N[C@@H]([C@@H](C)O)C(=O)NCC(=O)N[C@@H](CCCCN)C(=O)N[C@@H](CO)C(=O)N2)NC(=O)[C@H](CSSC[C@@H](C(N)=O)NC(=O)[C@H](CCCCN)NC(=O)CNC(=O)[C@H](CO)NC(=O)[C@H](CCCNC(=N)N)NC3=O)NC(=O)[C@H](CC(N)=O)NC(=O)[C@H](Cc2ccc(O)cc2)NC(=O)[C@H](C)NC1=O` [FVIA, CKGTGKSCSRIAYNCCTGSCRSGKC-NH2], the “50% withdrawal threshold, mechanical stimulus” value is on record as “increase in 50% withdrawal threshold”.

Take `CSCC[C@@H]1NC(=O)[C@H](CC(C)C)NC(=O)[C@H](CCCNC(=N)N)NC(=O)[C@H](CO)NC(=O)[C@@H]2CSSC[C@@H]3NC(=O)[C@H](CO)NC(=O)CNC(=O)[C@H]([C@@H](C)O)NC(=O)[C@H](CSSC[C@H](N)C(=O)N[C@@H](CCCCN)C(=O)NCC(=O)N[C@@H](CCCCN)C(=O)NCC(=O)N[C@@H](C)C(=O)N[C@@H](CCCCN)C(=O)N2)NC(=O)[C@H](CSSC[C@@H](C(N)=O)NC(=O)[C@H](CCCCN)NC(=O)CNC(=O)[C@H](CO)NC(=O)[C@H](CCCNC(=N)N)NC3=O)NC(=O)[C@H](CC(=O)O)NC(=O)[C@H](Cc2ccc(O)cc2)NC1=O` [MVIIA, CKGKGAKCSRLMYDCCTGSCRSGKC-NH2]: the “50% withdrawal threshold, mechanical stimulus” value is recorded as “increase in 50% withdrawal threshold”.
